Results: PubChem BioAssay (NCI)
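Growth conditions: 96-well plates. Treatment: test compound, 48 hours, 5 concentrations. Analysis: linear interpolation between bracketing concentrations; unreached endpoints set to highest concentration. GI50: concentration for 50% inhibition of growth. Definition used: TGI = concentration required for complete inhibition of growth.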

How the values were obtained:
Assay in all cases: growth of human tumour cells (NCI), 48 h
786-0 renal = tested on: 786-0 renal
ACHN renal = tested on: ACHN renal
CCRF-CEM leukemia = tested on: CCRF-CEM leukemia
DLD-1 colon = tested on: DLD-1 colon
DMS 114 small cell lung = tested on: DMS 114 small cell lung
EKVX NSCLC = tested on: EKVX NSCLC
HOP-92 NSCLC = tested on: HOP-92 NSCLC
KM20L2 colon = tested on: KM20L2 colon
LXFL 529 NSCLC = tested on: LXFL 529 NSCLC
M19-MEL melanoma = tested on: M19-MEL melanoma
SNB-78 CNS = tested on: SNB-78 CNS
SR leukemia = tested on: SR leukemia
XF 498 CNS = tested on: XF 498 CNS
DMS 273 small cell lung = tested on: DMS 273 small cell lung
NCI-H522 lung = tested on: NCI-H522 lung

| Compound | TGI (786-0 renal) [µM] | TGI (ACHN renal) [µM] | TGI (CCRF-CEM leukemia) [µM] | TGI (DLD-1 colon) [µM] | TGI (DMS 114 small cell lung) [µM] | TGI (EKVX NSCLC) [µM] | TGI (HOP-92 NSCLC) [µM] | TGI (KM20L2 colon) [µM] | TGI (LXFL 529 NSCLC) [µM] | TGI (M19-MEL melanoma) [µM] | TGI (SNB-78 CNS) [µM] | TGI (SR leukemia) [µM] | TGI (XF 498 CNS) [µM] | TGI (DMS 273 small cell lung) [µM] | TGI (NCI-H522 lung) [µM] | GI50 (CCRF-CEM leukemia) [µM] | GI50 (EKVX NSCLC) [µM] |
| --- | --- | --- | --- | --- | --- | --- | --- | --- | --- | --- | --- | --- | --- | --- | --- | --- | --- |
| CC1CC(=O)C(CC(=O)O)C1C(C(=O)C(=O)Nc1c(C#N)cccc1[N+](=O)[O-])[N+](=O)[O-] (centres undefined) | > 100 | > 100 | > 100 | > 100 | > 100 | > 100 | > 100 | > 100 | > 100 | > 100 | > 100 | > 100 | > 100 | – | – | – | – |
| Nc1ccc(C(=O)NN2C(=O)C(Cl)C2c2ccc([N+](=O)[O-])cc2)cc1 (centres undefined) | 16.6 | 27 | 14 | 21.8 | 11.2 | 24.4 | 37.1 | 27.4 | 18.2 | 28 | 51.7 | – | – | 17.5 | 3.21 | – | – |
| O=C1SC(c2ccccc2)(c2ccccc2)c2ccccc21 | > 100 | > 100 | > 100 | > 100 | 94.4 | > 100 | – | > 100 | > 100 | > 100 | > 100 | – | > 100 | > 100 | > 100 | – | – |
| CC(=O)[O-].[Ni].c1ccc(/C(=N\Nc2ccccn2)c2ccccn2)cc1 | 22.1 | 53 | 44.3 | 32.7 | 3.36 | 55.5 | 22.3 | 22.1 | 16 | 39.3 | > 100 | – | – | 25.5 | 20.9 | 0.0976 | 0.0973 |
| CC(=O)OC1(C#N)CC2OC1C1C2N1C(=O)OC(C)(C)C (centres undefined) | > 100 | > 100 | > 100 | > 100 | > 100 | > 100 | > 100 | > 100 | > 100 | > 100 | > 100 | – | > 100 | – | > 100 | – | – |
| Cc1ccc([N+](=O)[O-])cc1NC(=O)C(=O)Cc1cc(=O)oc2cc(O)ccc12 | > 100 | > 100 | > 100 | > 100 | 36.3 | > 100 | > 100 | > 100 | > 100 | > 100 | > 100 | 94.2 | > 100 | – | > 100 | – | – |
| COCC(=O)OC1CCn2c1nc1c2C(=O)C(C)=C(NC(C)=O)C1=N (centres undefined) | 9.3 | 19.9 | 8.27 | – | – | 25.3 | 9.11 | – | – | – | – | 7.52 | – | – | 21.5 | – | – |
| c1nc(SSc2ncnc3nc[nH]c23)c2[nH]cnc2n1 | > 100 | > 100 | > 100 | – | – | > 100 | > 100 | – | – | – | – | > 41.6 | – | – | > 100 | – | – |
| O=C1NC(N/N=C/c2ccccc2)=N/C1=C\c1cccs1 | 44.6 | 33.5 | > 75.8 | – | – | 47.3 | 32.4 | – | – | – | – | > 100 | – | – | 5.61 | – | – |
| CC(=O)Nc1ccc(S(=O)(=O)[N-]C2C(=O)c3ccccc3C(=O)C2[n+]2ccccc2)cc1 (centres undefined) | > 100 | 30.7 | 40.5 | – | – | > 100 | 33.6 | – | – | – | – | 42.1 | – | – | 92.7 | – | – |
| CCCN1CN(c2ccccc2)C2(CCN(CCCC(=O)c3ccc(F)cc3)CC2)C1=O | 17.3 | 12.9 | 5.16 | – | – | 54.2 | 8.98 | – | – | – | – | 41.4 | – | – | 43.6 | – | – |
| CCOC(=O)NC(NNc1ccc([N+](=O)[O-])cc1[N+](=O)[O-])(C(F)(F)F)C(F)(F)F | > 100 | > 100 | 72.3 | – | – | > 100 | 47.3 | – | – | – | – | 60.6 | – | – | 77 | – | – |
| CC(C)[Si](OCC1CC(C[C@H]2CC(C[C@H]3C[C@@H](CO[Si](C(C)C)(C(C)C)C(C)C)OC(C)(C)O3)OC(C)(C)O2)OC(C)(C)O1)(C(C)C)C(C)C (some centres undefined) | > 100 | > 100 | > 100 | > 100 | > 100 | > 100 | > 100 | > 100 | – | > 100 | > 100 | > 100 | – | > 100 | > 100 | – | – |
| O=Cc1[nH]c(=O)[nH]c(=O)c1CCl | > 100 | > 100 | > 85.8 | – | – | > 100 | > 100 | – | – | – | – | 57.7 | – | – | > 100 | – | – |
| COP(=O)(OC)C(O)/C=C(\Cl)c1ccc(Cl)cc1 (centres undefined) | 39.3 | > 100 | 49 | – | – | > 100 | 45.3 | – | – | – | – | 59.1 | – | – | > 100 | – | – |
| c1ccc(SC(Sc2ccccc2)c2ccc3c(c2)OCO3)cc1 | > 100 | > 100 | > 100 | – | – | > 100 | > 100 | – | – | – | – | > 100 | – | – | > 100 | – | – |
| CCN(CC)CCNc1ccc2ncn3c4c(OC)cccc4c(=O)c1c23 | 75 | 25.2 | 17.3 | – | – | 17.7 | 18.4 | – | – | – | – | 20.8 | – | – | 20.7 | – | – |
